“Also recorded” adds a separate entry of the source. Read-outs that look alike come from different tables or passages of the source.
Columns and labels:
[1] = tested on: GBM; assay: Published GBM trials used for comparison (Tables 13 and 14, discussion); format: in vivo, human; details: Rad/TMZ plus Avastin arm
[2] = tested on: GBM; details: cited from earlier work; for Median PFS / Median Survival: Rad/TMZ plus Avastin arm
[3] = tested on: GBM patients; assay: Adverse events (CTCAE version 4.0) in the same clinical study; format: in vivo, human; details: 46 patients
Method: Baseline evaluation including neurologic assessment, complete blood analysis, and tumor imaging with contrast-enhanced MRI was performed pre-operatively and immediately postoperatively, usually within 48 hours. KPS was graded by the treating provider. Repeat assessment by physical examination and imaging was performed at the completion of initial chemoradiotherapy, just prior to the first vaccine administration. Final eligibility to receive vaccine was determined at this time point. After initiation of vaccine therapy, patients were evaluated every 4 weeks by clinical examination, and every 8 weeks by radiographic imaging with contrast-enhanced MRI. Tumor progression was assessed according to the modified RANO criteria (Table 1). Adverse events were assessed and graded according to the National Cancer Institute Common Terminology Criteria for Adverse Event (CTCAE), version 4.0.

[4] = cited from earlier work
[5] = AVAglio, Chinot et al, NEJM 2014
[6] = RTOG 0825 Gilbert, et al. NEJM 2014
[7] = RTOG 0825 Trial, Gilbert, NEJM 2013, N = 637

Molecule | Estimated Post-Progression Survival [1, 5] [months] | Estimated Post-Progression Survival [1, 6] [months] | Median PFS [2, 5] [months] | Median Survival [2, 5] [months] | Median PFS [2, 6] [months] | Median Survival [2, 6] [months] | Median Survival, Methylated [2, 7] [months] | Median Survival, Unmethylated [2, 7] [months] | Median overall survival, methylated patients ([2]; bevacizumab trials) [months] | Median overall survival, unmethylated patients ([2]; bevacizumab trials) [months] | Benefit of adding bevacizumab to radiation and temozolomide ([2]; newly diagnosed GBM, randomized phase 3 trials vs placebo) | Any Adverse Event: TWZ-related event [3] | Grade 3-4 Event: TWZ-related event [3] | concentrations in the central nervous system relative to plasma concentrations ([4]; following oral administration) | blood-brain barrier penetration ([4]; in vivo) | bioavailability ([4]; taken orally)
bevacizumab [Avastin] | 6.2 | 5.4 | 10.6 | 16.8 | 10.7 | 16.1 | 23.2 | 14.3 | 25.0 | 14.6 | no significant benefit; also recorded: no improvement in overall survival compared to placebo |  |  |  |  | 
Cn1nnc2c(C(N)=O)ncn2c1=O [temozolomide] |  |  |  |  |  |  |  |  |  |  |  | 42 (91.3%) no. of patients (%) | 21 (45.6%) no. of patients (%) | approximately 30% | able to cross the blood-brain barrier | greater than 95%
